Data set [1] relates to Streptococcus pyogenes LSI-1235. Nature of the data set: MIC panel (Laboratory Specialists, Inc.), S. pyogenes. It is filed as cell-based. To be noted: LSI1235, Cmpd. 6, CLSI broth microdilution.
The target in data set [2] is T1, Nav 1.5 Human Sodium Ion Channel (Homo sapiens, UniProt Q14524).
T1 construct: expressed in transfected cells
Nature of the data set: Nav 1.5 QPatch CiPA assay. The data set is classed as cell-based. To be noted: mean, duplicate. The text has this:
(§1) Early drug discovery programs commonly assess hERG inhibition as the only indicator of potential cardiovascular safety concerns. Researchers have recently recommended a more rigorous evaluation of multiple cardiac ion channels to provide a more comprehensive cardiovascular risk assessment (Fermini, B., et al., A New Perspective in the Field of Cardiac Safety Testing through the Comprehensive In Vitro Proarrhythmia Assay Paradigm. J. Biomolec. Screening 2016, 21, 1-11). Given the promising initial results for 6, further evaluation was undertaken (in duplicate) in a Comprehensive in vitro Proarrhythmia Assay (CiPA) eight assay panel run on the QPatch HT (Sophion, Denmark) automated patch clamp system at three concentrations (3, 30, and 100 μM). All data were filtered for seal quality, seal drop, and current amplitude. A stock solution of the test compound at 30 mM concentration was prepared in DMSO.
The parameters measured were the maximum inward current evoked on stepping to −15 mV from the test pulse. The peak current amplitude was calculated before and after compound addition and the amount of block was assessed by dividing the Test compound current amplitude by the Control current amplitude. Control is the mean hNav1.5 current amplitude collected 15 seconds at the end of the control; Test Compound is the mean hNav1.5 current amplitude collected in the presence of test compound at each concentration. The positive control compound was tetracaine.

For data set [3], the target named is T2, hKv4.3/KChIP2 (Homo sapiens, UniProt Q9UK17).
T2 construct: expressed in transfected cells
T2 sequence (Q9UK17 1-655): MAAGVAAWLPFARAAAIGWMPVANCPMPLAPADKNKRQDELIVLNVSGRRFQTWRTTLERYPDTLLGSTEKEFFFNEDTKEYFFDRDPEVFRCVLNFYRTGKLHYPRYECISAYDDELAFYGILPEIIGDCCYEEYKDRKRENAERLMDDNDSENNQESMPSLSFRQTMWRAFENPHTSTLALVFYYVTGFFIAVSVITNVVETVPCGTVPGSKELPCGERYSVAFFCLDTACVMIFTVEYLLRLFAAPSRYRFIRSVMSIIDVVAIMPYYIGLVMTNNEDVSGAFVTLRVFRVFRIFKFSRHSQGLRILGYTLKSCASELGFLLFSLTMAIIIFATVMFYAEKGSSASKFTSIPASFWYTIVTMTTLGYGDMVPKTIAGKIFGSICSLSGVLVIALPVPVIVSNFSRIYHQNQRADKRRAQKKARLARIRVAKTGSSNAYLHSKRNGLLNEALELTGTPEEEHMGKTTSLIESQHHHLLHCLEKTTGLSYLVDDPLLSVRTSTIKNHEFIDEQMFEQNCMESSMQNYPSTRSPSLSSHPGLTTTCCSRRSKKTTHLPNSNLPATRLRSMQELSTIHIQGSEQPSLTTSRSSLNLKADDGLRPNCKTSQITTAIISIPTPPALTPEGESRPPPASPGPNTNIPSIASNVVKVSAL
T2 sequence (Q9NS61 1-270 partner): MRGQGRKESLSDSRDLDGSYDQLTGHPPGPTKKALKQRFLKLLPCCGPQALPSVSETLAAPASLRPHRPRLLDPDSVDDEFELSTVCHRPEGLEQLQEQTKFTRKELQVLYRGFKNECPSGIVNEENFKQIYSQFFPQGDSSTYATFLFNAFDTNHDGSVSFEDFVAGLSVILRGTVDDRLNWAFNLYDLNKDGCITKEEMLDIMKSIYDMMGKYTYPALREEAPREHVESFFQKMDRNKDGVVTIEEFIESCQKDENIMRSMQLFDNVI
Nature of the data set: Kv4.3/KChIP2 QPatch CiPA assay. It is filed as cell-based. To be noted: mean, duplicate.
Text: as §1
The parameters measured were the maximum outward current evoked on stepping to 40 mV from the test pulse. The peak current amplitude was calculated before and after compound addition and the amount of block was assessed by dividing the Test compound current amplitude by the Control current amplitude. Control is the mean hKv4.3/KChIP2 current amplitude collected 15 seconds at the end of the control; Test Compound is the mean hKv4.3/KChIP2 current amplitude peak and end collected in the presence of test compound at each concentration. The positive control was flecainide.

For data set [4] the following is noted: 100 μM. The procedure:
Potential off-target pharmacology for compound 6 was also evaluated by screening in duplicate against a panel (Bowes, J., et al., Reducing Safety-Related Drug Attrition: The Use of in vitro Pharmacological Profiling. Nat. Rev. Drug Disc. 2012, 11, 909-922) of 44 receptors, enzymes, etc. Of the 44 potential targets, only five were inhibited by >50% at a concentration of 100 μM (Table 7).

Data set [5] in a line: in vitro. It is filed as in vitro ADME. To be noted: pH 7.4, 1 μM, read-out: microsomal half-life. The procedure:
The test compound at 1 μM was pre-incubated with pooled liver microsomes in phosphate buffer (pH 7.4) for 5 minutes in a 37° C. shaking water bath. The reaction was initiated by adding NADPH-generating mixture (NADP+, glucose-6-phospate, glucose-6-phosphate dehydrogenase) and incubated for 0, 15, 30, 45, and 60 minutes. The reaction was stopped by transferring aliquots of the incubation mixture to acetonitrile/methanol. Samples were centrifuged, and supernatants analyzed by LCMS. The half-life was calculated from the slope of the initial linear range of the logarithmic curve of compound remaining %) vs. time, assuming first order kinetics. In addition, the intrinsic clearance (Clint) was calculated from the half-life.

For data set [6], the target named is T3, CYP2B6 (Homo sapiens, UniProt P20813).
T3 construct: incubated with human liver microsomes (mixed gender, pool of 50 donors, 0.1 mg/mL); from tissue; host or cells: human liver microsomes, pool of 50 donors
T3 sequence (P20813 whole entry): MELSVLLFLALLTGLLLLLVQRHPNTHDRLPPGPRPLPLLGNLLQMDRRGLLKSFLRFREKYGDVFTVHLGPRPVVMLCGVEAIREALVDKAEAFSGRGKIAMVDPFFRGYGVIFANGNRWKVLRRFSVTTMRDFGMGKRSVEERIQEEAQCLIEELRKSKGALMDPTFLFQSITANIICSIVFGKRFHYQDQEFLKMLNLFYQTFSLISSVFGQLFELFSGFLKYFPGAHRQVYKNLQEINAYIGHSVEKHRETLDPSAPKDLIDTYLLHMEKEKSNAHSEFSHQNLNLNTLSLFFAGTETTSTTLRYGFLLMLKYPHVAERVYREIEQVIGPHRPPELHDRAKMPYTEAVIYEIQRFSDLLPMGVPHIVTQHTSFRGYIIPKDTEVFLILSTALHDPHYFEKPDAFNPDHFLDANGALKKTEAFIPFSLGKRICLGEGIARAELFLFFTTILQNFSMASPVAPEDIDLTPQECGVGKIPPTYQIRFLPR
Nature of the data set: CYP450 inhibition in human liver microsomes, CYP2B6. The data set is classed as in vitro ADME. To be noted: 10 μM. The procedure: CYP450 inhibition assays was conducted using individual enzyme substrates and inhibitors instead of a cocktail to avoid interferences. CYP450 isoforms tested included the following: CYP1A2, CYP2B6, CYP2C8, CYP2C9, CYP2C19, CYP2D6, and CYP3A4. Each test compound was screened at a final concentration of 10 μM. Each test compound was incubated with human liver microsomes (mixed gender, pool of 50 donors, 0.1 mg/mL), CYP450-selective probe substrates, and co-factors (NADPH, MgCl2) in phosphate buffer (pH 7.4) for 10-30 min in a 96-well plate at 37° C. The reactions were stopped by transferring the reaction mixture to acetonitrile/methanol. Samples were mixed and centrifuged, and the supernatants analyzed by LC-MS/MS to quantify percent inhibition relative to vehicle control.

Where [7] appears, read: read-out: % Inhibition Kv4.3 (end current).
Setting [8] is: read-out: % Inhibition Kv4.3 (peak current).

Like-named read-outs stand apart in the source and are kept apart here.

T1 sequence (Q14524 whole entry): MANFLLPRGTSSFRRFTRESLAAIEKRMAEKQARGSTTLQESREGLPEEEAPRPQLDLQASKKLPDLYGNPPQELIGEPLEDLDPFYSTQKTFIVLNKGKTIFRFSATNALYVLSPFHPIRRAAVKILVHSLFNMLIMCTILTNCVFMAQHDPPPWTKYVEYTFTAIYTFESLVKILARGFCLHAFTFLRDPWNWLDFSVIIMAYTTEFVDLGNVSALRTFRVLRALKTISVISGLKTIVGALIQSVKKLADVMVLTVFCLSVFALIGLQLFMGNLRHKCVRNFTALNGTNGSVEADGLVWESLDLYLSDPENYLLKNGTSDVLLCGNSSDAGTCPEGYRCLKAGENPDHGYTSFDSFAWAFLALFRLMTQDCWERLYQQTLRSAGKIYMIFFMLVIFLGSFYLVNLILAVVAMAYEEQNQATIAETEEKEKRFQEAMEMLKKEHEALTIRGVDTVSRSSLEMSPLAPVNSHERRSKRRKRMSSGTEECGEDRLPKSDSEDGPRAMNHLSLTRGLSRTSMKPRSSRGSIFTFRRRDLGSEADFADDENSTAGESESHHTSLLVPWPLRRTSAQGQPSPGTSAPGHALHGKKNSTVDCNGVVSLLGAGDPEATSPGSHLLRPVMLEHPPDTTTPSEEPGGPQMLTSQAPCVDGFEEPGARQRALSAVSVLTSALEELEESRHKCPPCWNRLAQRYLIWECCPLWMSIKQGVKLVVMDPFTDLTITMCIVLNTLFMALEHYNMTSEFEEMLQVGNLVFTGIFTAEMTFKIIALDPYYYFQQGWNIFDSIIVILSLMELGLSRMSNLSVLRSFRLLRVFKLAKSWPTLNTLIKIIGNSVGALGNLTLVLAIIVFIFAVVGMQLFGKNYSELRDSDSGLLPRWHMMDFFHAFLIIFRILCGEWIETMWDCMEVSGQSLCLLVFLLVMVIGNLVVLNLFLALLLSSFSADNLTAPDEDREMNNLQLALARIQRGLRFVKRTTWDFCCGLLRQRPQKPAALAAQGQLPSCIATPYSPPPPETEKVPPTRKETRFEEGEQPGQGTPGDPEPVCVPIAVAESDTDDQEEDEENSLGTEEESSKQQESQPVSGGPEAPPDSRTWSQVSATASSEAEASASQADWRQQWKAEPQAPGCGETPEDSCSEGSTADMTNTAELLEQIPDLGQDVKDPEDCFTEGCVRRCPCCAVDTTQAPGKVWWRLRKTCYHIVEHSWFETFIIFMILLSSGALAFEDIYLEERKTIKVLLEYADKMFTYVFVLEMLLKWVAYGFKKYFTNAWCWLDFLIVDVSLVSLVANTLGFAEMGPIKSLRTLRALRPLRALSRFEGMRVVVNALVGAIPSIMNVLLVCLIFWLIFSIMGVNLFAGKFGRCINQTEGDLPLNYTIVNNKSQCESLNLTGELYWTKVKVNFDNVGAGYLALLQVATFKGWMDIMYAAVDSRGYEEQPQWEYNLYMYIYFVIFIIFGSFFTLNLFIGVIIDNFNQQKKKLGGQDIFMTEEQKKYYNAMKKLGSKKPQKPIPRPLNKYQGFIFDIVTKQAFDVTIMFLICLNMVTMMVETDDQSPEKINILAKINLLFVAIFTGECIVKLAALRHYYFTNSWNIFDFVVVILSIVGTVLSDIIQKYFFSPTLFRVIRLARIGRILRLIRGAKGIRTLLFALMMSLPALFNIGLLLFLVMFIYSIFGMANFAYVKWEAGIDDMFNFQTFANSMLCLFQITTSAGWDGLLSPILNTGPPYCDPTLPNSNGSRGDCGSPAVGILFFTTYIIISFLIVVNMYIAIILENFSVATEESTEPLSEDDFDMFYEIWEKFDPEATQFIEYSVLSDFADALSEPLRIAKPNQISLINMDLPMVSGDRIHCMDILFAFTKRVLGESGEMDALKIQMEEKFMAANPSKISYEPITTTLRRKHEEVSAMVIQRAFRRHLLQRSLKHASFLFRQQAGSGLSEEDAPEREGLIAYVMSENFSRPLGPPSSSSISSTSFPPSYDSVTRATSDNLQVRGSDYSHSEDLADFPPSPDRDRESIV

One may read the MIC as the lowest concentration found to suppress growth. The term inhibition denotes the drop in the measured response relative to a control, in per cent. For orientation: half-life means the time needed for the level to fall by half in the phase considered. Compound `COc1ccc2ncc(F)c(CC[C@@]3(O)CO[C@@H]4[C@@H](NCc5cc6c(cn5)OCCO6)CO[C@@H]43)c2n1` [Compound 6, (3R, 3aS,6S,6aR)-6-(((2,3-dihydro-[1,4]dioxino[2,36-c]pyridin-7-yl)methyl)amnino)-3-(2-(3-fluoro-6-methoxy-1,5-naphthyridin-4-yl)ethyl)hexahydrofuro[3,2-b]furan-3-ol] gave an MIC in data set [1] of at most 0.12 µg/mL. Also, the “% Inhibition Nav1.5 (peak current)” value is on record as 6.1% in data set [2] (3 μM), 16.7% in data set [2] (30 μM) and 21.1% in data set [2] (100 μM). In addition, the inhibition at 3 µM in data set [3] (setting [7]) is -4.4%; in data set [3] (setting [8]), 11%. Besides, the inhibition at 30 µM in data set [3] (setting [7]) is -19.6%; in data set [3] (setting [8]) it was 25.1%. The inhibition at 100 µM in data set [3] (setting [7]) stood at 7.1%; in data set [3] (setting [8]), 43.6%. In data set [4], the “number of the 44 potential targets inhibited by >50%” value was “five”. Further, the half-life in data set [5] (human microsomes) was 6 min; in data set [5] (mouse microsomes), 3 min. For the same compound, in data set [6], the CYP2B6 inhibition entry is given as “Less than 50%”.
